Measurements as given in US11001569B2, “6-membered heteroaromatic substituted cyanoindoline derivatives as NIK inhibitors” (Janssen Pharmaceutica NV, priority 2016, dated 2021).

What was measured:
[1] = target: recombinant human NF-kappaB-inducing Kinase (NIK/MAP3K14) (Homo sapiens, UniProt Q99558); test: Inhibition of auto-phosphorylation of recombinant human NIK/MAP3K14 activity (AlphaScreen); assay type: biochemical; settings: 25 microM ATP, averaged over all measurements on all batches
Method: Pharmacological Part Biological assay A Inhibition of auto-phosphorylation of recombinant human NF-kappaB-inducing Kinase (NIK/MAP3K14) Activity (AlphaScreen®)
NIK/MAP3K14 auto-phosphorylation activity was measured using the AlphaScreen® (αscreen) format (Perkin Elmer). All compounds tested were dissolved in dimethyl sulfoxide (DMSO) and further dilutions were made in assay buffer. Final DMSO concentration was 1% (v/v) in assays. Assay buffer was 50 mM Tris pH 7.5 containing 1 mM EGTA (ethylene glycol tetraacetic acid), 1 mM DTT (dithiothreitol), 0.1 mM Na3VO4, 5 mM MgCl2, 0.01% Tween® 20. Assays were carried out in 384 well Alphaplates (Perkin Elmer). […] Incubations were initiated by addition of GST-tagged NIK/MAP3K14 enzyme, carried out for 1 h at 25° C. and terminated by addition of stop buffer containing anti-phospho-IKK Ser176/180 antibody. Protein A Acceptor and Glutathione-Donor beads were added before reading using an EnVision® Multilabel Plate Reader (Perkin Elmer). Signal obtained in the wells containing blank samples was subtracted from all other wells and IC50's were determined by fitting a sigmoidal curve to % inhibition of control versus Log10 compound concentration.

[2] = tested on: JJN-3 (NIK translocated) multiple myeloma cells; test: Antiproliferative activity on JJN-3 multiple myeloma cells (CellTiter-Glo); assay type: cell-based, human; settings: Homo sapiens, JJN-3, 96 h, JJN-3 (NIK translocated) cells, 96 hr treatment, averaged values, read-out: JJN-3 Proliferation inhibition (IC50 (nM))
Method: (§1) Determination of Antiproliferative Activity on JJN-3 (NIK Translocated) and KMS12-BM (NIK WT) Multiple Myeloma Cells
(§2) All compounds tested were dissolved in DMSO and further dilutions were made in culture medium. Final DMSO concentration was 0.3% (v/v) in cell proliferation assays. Viability was assessed using CellTiter-Glo cell viability assay kit (Promega). […] Cells were routinely kept as suspension cells at 37° C. in a humidified 5% CO2 atmosphere. Cells were passaged at a seeding density of 0.2×10^6/ml twice a week. Cells were seeded in black tissue culture treated 96-well plates (Perkin Elmer). Densities used for plating ranged from 15000 (JJN3) to 20000 (KMS12BM) cells per well in a total volume of 135 μl medium. Drugs and/or solvents were added (15 μl) to a final volume of 150 μl. Following 96 hr of treatment, plates were removed from the incubator and allowed to equilibrate to room temperature for approx 10 min. 75 μl CellTiter-Glo reagent was added to each well that was then covered (Perkin Elmer Topseal) and shaken on plate shaker for 10 min. Luminescence was measured on a HTS Topcount (Perkin Elmer). […] For initial screening purposes, compounds were tested using a 9 point dilution curve (serial 1:3 dilutions). For each experiment, controls (containing no drug) and a blank incubation (containing cells read at the time of compound addition) were run in parallel. The blank value was subtracted from all control and sample values. For each sample, the mean value for cell growth (in relative light units) was expressed as a percentage of the mean value for cell growth of the control.

[3] = tested on: KMS12-BM (NIK WT) multiple myeloma cells; test: Antiproliferative activity on KMS12-BM multiple myeloma cells (CellTiter-Glo); assay type: cell-based, human; settings: Homo sapiens, KMS-12-BM, 96 h, 96 hr treatment, averaged values, read-out: KMS-12 Proliferation inhibition (IC50 (nM))
Method: as §1, §2

recombinant human NF-kappaB-inducing Kinase (NIK/MAP3K14), sequence (Q99558 whole entry): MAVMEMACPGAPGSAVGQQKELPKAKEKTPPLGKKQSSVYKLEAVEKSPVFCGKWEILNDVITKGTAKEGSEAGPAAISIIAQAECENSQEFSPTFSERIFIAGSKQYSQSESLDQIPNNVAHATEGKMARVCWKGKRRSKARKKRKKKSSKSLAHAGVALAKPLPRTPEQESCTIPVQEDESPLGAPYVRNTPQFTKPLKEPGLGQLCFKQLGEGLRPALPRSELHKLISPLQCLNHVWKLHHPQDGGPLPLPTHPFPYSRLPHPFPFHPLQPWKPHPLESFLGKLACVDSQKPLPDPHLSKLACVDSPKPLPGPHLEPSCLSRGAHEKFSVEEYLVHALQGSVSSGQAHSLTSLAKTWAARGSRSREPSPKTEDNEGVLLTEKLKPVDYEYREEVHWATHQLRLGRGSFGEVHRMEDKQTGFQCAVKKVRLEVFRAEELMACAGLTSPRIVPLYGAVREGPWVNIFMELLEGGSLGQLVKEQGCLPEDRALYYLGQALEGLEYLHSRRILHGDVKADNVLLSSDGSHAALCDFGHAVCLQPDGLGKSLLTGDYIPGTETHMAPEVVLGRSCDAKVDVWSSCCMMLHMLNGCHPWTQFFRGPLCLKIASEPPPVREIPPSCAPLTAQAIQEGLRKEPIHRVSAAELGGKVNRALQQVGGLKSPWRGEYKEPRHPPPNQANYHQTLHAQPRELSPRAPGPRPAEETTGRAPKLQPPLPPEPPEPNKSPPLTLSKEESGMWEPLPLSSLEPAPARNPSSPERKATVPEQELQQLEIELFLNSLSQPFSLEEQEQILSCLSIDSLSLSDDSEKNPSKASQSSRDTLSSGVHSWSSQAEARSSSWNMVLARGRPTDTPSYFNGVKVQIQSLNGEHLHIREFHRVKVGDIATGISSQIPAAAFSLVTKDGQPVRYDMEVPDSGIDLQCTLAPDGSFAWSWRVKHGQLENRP

Row | SMILES | IC50 [1] [nM] | IC50 [2] [nM] | IC50 [3] [nM] | melting point [°C]
1 | COc1ncccc1Nc1nccc(-c2cc(C#N)c3c(c2)C(C)(CN2CCNCC2)CN3)n1 (stereo not drawn) [Compound 111] | 14.8 | 669 | 3160 | 220
2 | COc1ncccc1Nc1nccc(-c2cc(C#N)c3c(c2)C(C)(CNCCS(C)(=O)=O)CN3)n1 (stereo not drawn) [Compound 112] | 22.9 | 1820 | > 10000 | 146
3 | COc1ncccc1Nc1nccc(-c2cc(C#N)c3c(c2)C(C)(CN2CCOCC2)CN3)n1 (stereo not drawn) [Compound 113] | 34.7 | 5750 | > 10000 | 95
4 | COc1ncccc1Nc1nccc(-c2cc(C#N)c3c(c2)C(C)(CN(C)CCO)CN3)n1 (stereo not drawn) [Compound 114] | 32.4 | 3550 | > 10000 | 60
5 | COc1ncccc1Nc1nccc(-c2cc(C#N)c3c(c2)C(C)(CNC(C)=O)CN3)n1 (stereo not drawn) [Compound 115] | 10 | 741 | 6310 | 203
6 | COc1ncccc1Nc1nccc(-c2cc(C#N)c3c(c2)C(C)(COCCNC(C)C)CN3)n1 (stereo not drawn) [Compound 116] | 85.1 | 2040 | > 10000 | 95
7 | COc1ncccc1Nc1nccc(-c2cc(C#N)c3c(c2)C(C)(COCCN2CCOCC2)CN3)n1 (stereo not drawn) [Compound 117] | 45.7 | > 10000 | > 10000 | 108
8 | COc1ncccc1Nc1nccc(-c2cc(C#N)c3c(c2)C(C)(COCCN2CCCC2)CN3)n1 (stereo not drawn) [Compound 118] | 64.6 | 4570 | 4070 | 88
9 | COc1ncc(Cl)cc1Nc1nccc(-c2cc(C#N)c3c(c2)C(C)(COCCNC2CC2)CN3)n1 (stereo not drawn) [Compound 119] | 129 | 1290 | 2000 | 106
10 | COc1ncc(Cl)cc1Nc1nccc(-c2cc(C#N)c3c(c2)C(C)(COCCN2CCCC2)CN3)n1 (stereo not drawn) [Compound 120] | 79.4 | 631 | 1230 | 152
11 | COc1ncc(Cl)cc1Nc1nccc(-c2cc(C#N)c3c(c2)C(C)(COCCN2CCOCC2)CN3)n1 (stereo not drawn) [Compound 121] | 117 | 1410 | 2510 | 104

The remaining lines, values ahead:

Row | IC50 [1] [nM] | IC50 [2] [nM] | IC50 [3] [nM] | melting point [°C] | SMILES
12 | 9.5 | 478 | 4790 | 182 | COC[C@@]1(C)CNc2c(C#N)cc(-c3ccnc(Nc4cc(Cl)cnc4C)n3)cc21 [Compound 122]
13 | 9.8 | 166 | 891 | 270 | CC1(C)CNc2c(C#N)cc(-c3ccnc(Nc4cnc(N5CCOCC5)nc4)n3)cc21 [Compound 125]
14 | 148 | 2510 | > 10000 | 227 | Cc1ccnc(Nc2nccc(-c3cc(C#N)c4c(c3)C(C)(CO)CN4)n2)n1 (stereo not drawn) [Compound 126]
15 | 4.5 | ~7080 | > 10000 | 333 | Cc1cc(Nc2nccc(-c3cc(C#N)c4c(c3)C(C)(CO)CN4)n2)nc(C)n1 (stereo not drawn) [Compound 127]
16 | 6.3 | 209 | ~195 | 307 | CC1(CO)CNc2c(C#N)cc(-c3ccnc(Nc4cncnc4)n3)cc21 (stereo not drawn) [Compound 128]
17 | 1.8 | 562 | > 10000 | 223 | COc1nc(C)ncc1Nc1nccc(-c2cc(C#N)c3c(c2)[C@@](C)(CO)CN3)n1 [Compound 129]
18 | 18.2 | 2000 | > 10000 | 231 | COCCOc1nc(C)ncc1Nc1nccc(-c2cc(C#N)c3c(c2)[C@@](C)(CO)CN3)n1 [Compound 136]
